From PMC6680510, “Benzotriazine Di-Oxide Prodrugs for Exploiting Hypoxia and Low Extracellular pH in Tumors” (Molecules, 2019)
Where two headings read alike, the source gives them in different places.

Key:
SiHa cells [1] = assay: IC50 assay (inhibition of proliferation, 4 h exposure, SRB); conditions: SiHa; for IC50: Homo sapiens, 4 h
How it was run: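 Cells exposed to compound for 4 h in titrated medium, then washed and regrown 5 days under standard conditions (oxia, pHe 7.4). Growth read by sulforhodamine B staining; IC50 from 4-parameter logistic regression of duplicate cultures.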

SiHa cells [2] = assay: Cellular uptake in stirred aerobic single cell suspensions (HPLC, 3H-mannitol correction)
Procedure: In these experiments, cell pellets were collected by centrifugation and ^3H-mannitol was used as a cell-excluded marker to enable correction for the entrapped extracellular medium.
Log-phase cultures were dissociated with trypsin/EDTA, followed by the addition of the medium with DNAase I (Sigma DN-25) at 100 μg/mL for 5 min at 37 °C to minimize clumping. The cell pellets were collected by centrifugation and resuspended in αMEM with 5% FBS at pH 7.4 or 6.5 to 2 × 10^6 cells/mL. Samples (12 mL) were equilibrated with magnetic stirring at 37 °C under flowing humidified 5% CO2/air or N2 (50–100 mL/min), as previously described [86]. After equilibration for 60 min, the compounds were added in 50 μL of DMSO. The samples (5 mL) were withdrawn 5 and 60 min later, where the cell pellets were then collected by centrifugation and 4 mL of the supernatant was discarded. The pellets were resuspended in the remaining 1 mL, transferred to microcentrifuge tubes containing 7 μL ^3H-mannitol (740 GBq/mmol, American Radiolabeled Chemicals Inc., St. Louis, MO) as an extracellular marker, and then centrifuged (11,000g × 30s). The supernatant was removed and frozen at −80 °C (extracellular samples) and the tubes were centrifuged again, and any remaining medium was carefully removed. Ice-cold MeOH (80 μL) was added to the pellets which were disrupted by pipetting and stored at −80 °C (intracellular samples). When these were thawed for HPLC analysis (Section 4.12), the volume of extracellular water trapped in the pellets was determined by the scintillation counting (PerkinElmer Tri-Carb B2910TR Liquid Scintillation) of 25 μL of each extracellular and intracellular sample in 3 mL of Emulsifier-Safe™ scintillation cocktail (PerkinElmer). The extracellular volume in each intracellular sample was used to correct the intracellular drug concentration as previously described [87].
The samples were analyzed using an Agilent 1200 HPLC with a diode array absorbance detector and autosampler maintained at 4 °C (Agilent Technologies). The frozen samples were thawed, then centrifuged (11,000g × 5 min), and then extracellular samples were injected directly (typically 20 μL), while for the intracellular samples 30 μL was mixed 1:1 with αMEM and 50 μL was injected. […] All calibration curves were linear (R^2 > 0.999). The column was an Agilent ZORBAX Eclipse (XDB-C18, 5u, 2.1 × 150 mm, Agilent Technologies) with a flow rate of 0.4 mL/min. For SN30000 (2), the mobile phase was a mixture of 80% MeCN/water v/v (A), and a 45 mM formate buffer at a pH 4.5, eluting with a linear gradient of 5–100% A over 18 min. The same method was used for the BTO acids, except for 4a, where the aqueous mobile phase pH was reduced to 3.5.
Values are mean and SEM for 3 replicates. ND: Not detected.

UT-SCC-74B cells = assay: IC50 assay (inhibition of proliferation, 4 h exposure, SRB); type: cell-based; conditions: UT-SCC-74B, UT-SCC-74B; for IC50: Homo sapiens, 4 h
Procedure: Cells were seeded in 96-well plates (SiHa or FaDu 1500 cells/well, UT-SCC-74B 800 cells/well) in 100 μL. After incubation for 2 h, the drugs were added in 50 μL of the same titrated medium at 3× the final concentration to duplicate the wells. After a further 4 h the plates were checked for drug precipitation using a phase contrast microscope, then drugs were removed by aspirating and washing with the standard (pH 7.4) medium, then aspirating again and adding 150 μL of the medium. Cultures were then grown for 5 days before staining with sulphorhodamine B and measuring absorbance, with the estimation of IC50 values using 4-parameter logistic regression, as previously carried out.
The medium and plasticware was equilibrated in the chamber for 3 days prior to use. In the anoxia experiments, FaDu cells were plated in poly-L-lysine coated plates (Corning Cat # 356461) to improve attachment. […]
Footnotes: a Number of experiments. b Anoxic cytotoxicity ratio = oxic IC50/anoxic IC50. c pH
cytotoxicity ratio = IC50 at pHe 7.4/ IC50 at pHe 6.5. d Overall ratio = oxic IC50 pHe 7.4 / anoxic IC50 pHe
6.5. Values are means and errors are SEM. For ratios, the errors are root mean square SEM. […]

SiHa and FaDu cells = assay: IC50 assay, summary statements over both cell lines; type: cell-based; conditions: read-out: Potency (IC50) under anoxia at pHe 6.5
Procedure: (§1) Cells were seeded in 96-well plates (SiHa or FaDu 1500 cells/well, UT-SCC-74B 800 cells/well) in 100 μL. After incubation for 2 h, the drugs were added in 50 μL of the same titrated medium at 3× the final concentration to duplicate the wells. After a further 4 h the plates were checked for drug precipitation using a phase contrast microscope, then drugs were removed by aspirating and washing with the standard (pH 7.4) medium, then aspirating again and adding 150 μL of the medium. Cultures were then grown for 5 days before staining with sulphorhodamine B and measuring absorbance, with the estimation of IC50 values using 4-parameter logistic regression, as previously carried out [85].

[3] = tested on: MDCK-II cells with forced expression of BCRP or Pgp; assay: IC50 under anoxia in cells with forced expression of efflux transporters; conditions: MDCK-II cell lines under anoxia, preliminary experiments
Procedure: expression of BCRP or Pgp.
Cells were seeded at 300 cells/well in DMEM with 10% FBS in 96 well plates in an
anaerobic chamber, allowed to attach for 2 h then exposed to drugs for 4 h under anoxia. Cells were
then washed with fresh medium and grown for 5 days under aerobic conditions before staining with
SRB. Values are mean ± SEM from 2 separate experiments.

SiHa and SiHa/POR cells = assay: IC50 in SiHa versus SiHa/POR cultures under anoxia; type: cell-based; conditions: 4 h under anoxia, pHe 7.4
Procedure: The lack of effect of POR over-expression on the reductive metabolism of the BTO acids in intact cells led us to compare the cytotoxicities of SN30000 (2), 4a, and 7a in SiHa/POR, and the parental line, under anoxia (Figure 6).
Drug exposure was for 4 h under anoxia, at pHe 7.4, with regrowth under aerobic conditions for 5 days before staining with SRB. Values are means and SEM for the two experiments, each with triplicate cultures at each drug concentration. TEXT PRINTED IN THE PICTURE: Cmpd 2: Ratio 6.75 ± 0.20 | Cmpd 4a: Ratio 3.40 ± 0.22 | Cmpd 7a: Ratio 2.67 ± 0.46

SiHa cells [4] = assay: IC50 assay modified for chronic hypoxia (oxia, hypoxia, anoxia); type: cell-based; conditions: for IC50: Homo sapiens
Procedure: There are relatively few viable cells in tumors at O2 concentrations as low as in the above anoxic experiments. In addition, extensive changes in gene expression occur under chronic exposure to intermediate O2 concentrations (chronic hypoxia), including the expression of proteins that regulate pHi. […] Therefore, oxic and anoxic exposures were also tested in these same experiments. The 24 h adaptation to hypoxia had little effect on the subsequent growth of the cultures at either pHe value (Figure S6).
To minimize problems with poor cell attachment under chronic hypoxia, the drugs were added from a 3-fold dilution series made in a separate plate, rather than by serial dilution in the plates containing the cells. In addition, the drugs were removed after the 4 h exposure by centrifuging the plates (200g × 5 min) prior to each aspiration. The same modifications were used for the oxic drug exposures in these experiments.

FaDu cells = assay: IC50 assay (inhibition of proliferation, 4 h exposure, SRB); type: cell-based; conditions: for IC50: Homo sapiens, 4 h
Procedure: as §1

[5] = pulse radiolysis, redox indicator MV^2+; cited from earlier work
[6] = set-up: method as in PMID 24737463; conditions: cited from earlier work
[7] = set-up: method as in PMID 28848445; conditions: cited from earlier work

## [O-][n+]1nc(CCCN2CCOCC2)[n+]([O-])c2cc3c(cc21)CCC3 [Compound 2, SN30000, reference compound]
SiHa cells [1]; read-out: Anoxic IC50, SiHa, pHe 6.5, 4 h, anoxic
  IC50: 5.52 ± 2.01 µM
SiHa cells [1]; read-out: Anoxic IC50, SiHa, pHe 7.4, 4 h, anoxic
  IC50: 2.87 ± 0.23 µM
SiHa cells [1]; read-out: Oxic IC50, SiHa, pHe 6.5, 4 h, oxic
  IC50: 253 ± 31 µM
SiHa cells [1]; read-out: Oxic IC50, SiHa, pHe 7.4, 4 h, oxic
  IC50: 292 ± 15 µM
SiHa cells [1]
  TMR (overall TME ratio = oxic IC50 pHe 7.4/anoxic IC50 pHe 6.5): 53 ± 19
SiHa cells [1]; anoxic
  PCR Anoxic (IC50 at pHe 7.4/IC50 at pHe 6.5): 0.52 ± 0.19
SiHa cells [1]; oxic
  PCR oxic (IC50 at pHe 7.4/IC50 at pHe 6.5): 1.15 ± 0.15
SiHa cells [1]; pHe 6.5
  ACR (anoxic cytotoxicity ratio = oxic IC50/anoxic IC50): 46 ± 18.0
SiHa cells [1]; pHe 7.4
  ACR (anoxic cytotoxicity ratio = oxic IC50/anoxic IC50): 101 ± 10
SiHa cells [1]; representative experiment (Figure 3), oxia and anoxia
  PCR (pH cytotoxicity ratio): little or no dependence on pHe
SiHa cells [1]; representative experiment (Figure 3), pHe 7.4 and 6.5
  ACR (anoxia cytotoxicity ratio): approximately 140
SiHa cells [2]; SiHa cell suspensions, data not shown
  Uptake (Ci/Ce) at 4 °C relative to 37 °C: minor increase
SiHa cells [2]; aerobic SiHa suspensions, 5 min
  Ci ratio (Ci at pHe 6.5/Ci at pHe 7.4): 1.09 ± 0.09 fold
SiHa cells [2]; aerobic SiHa suspensions, 60 min
  Ci ratio (Ci at pHe 6.5/Ci at pHe 7.4): 0.95 ± 0.07 fold
SiHa cells [2]; aerobic SiHa suspensions, pHe 6.5, 5 min
  Ci/Ce, pHe 6.5 Obs 5 min: 2.75 ± 0.07
SiHa cells [2]; aerobic SiHa suspensions, pHe 6.5, 60 min
  Ci/Ce, pHe 6.5 Obs 60 min: 2.37 ± 0.02
SiHa cells [2]; aerobic SiHa suspensions, pHe 7.4, 5 min
  Ci/Ce, pHe 7.4 Obs 5 min: 2.48± 0.27
SiHa cells [2]; aerobic SiHa suspensions, pHe 7.4, 60 min
  Ci/Ce, pHe 7.4 Obs 60 min: 2.49 ± 0.05
UT-SCC-74B cells; pHe 6.5, 4 h, 20% O2, read-out: Oxic IC50
  IC50: 190 ± 42 µM
UT-SCC-74B cells; pHe 6.5, 4 h, <0.01% O2, read-out: Anoxic IC50
  IC50: 6.29 ± 1.79 µM
UT-SCC-74B cells; pHe 7.4, 4 h, 20% O2, read-out: Oxic IC50
  IC50: 477 ± 65 µM
UT-SCC-74B cells; pHe 7.4, 4 h, <0.01% O2, read-out: Anoxic IC50
  IC50: 5.92 ± 2.42 µM
UT-SCC-74B cells
  TME ratio (oxic IC50 pHe 7.4/anoxic IC50 pHe 6.5): 75.8 ± 23.9
UT-SCC-74B cells; anoxic
  PCR Anoxic (IC50 at pHe 7.4/IC50 at pHe 6.5): 0.94± 0.47
UT-SCC-74B cells; oxic
  PCR oxic (IC50 at pHe 7.4/IC50 at pHe 6.5): 2.51 ± 0.65
UT-SCC-74B cells; pHe 6.5
  ACR (oxic IC50/anoxic IC50): 30.2 ± 10.9
UT-SCC-74B cells; pHe 7.4
  ACR (oxic IC50/anoxic IC50): 80.6 ± 34.7
SiHa and FaDu cells
  IC50: 2.9 to 8.6 µM
[3]
  Effect of overexpression of BCRP or Pgp efflux transporters on sensitivity: no effect
SiHa and SiHa/POR cells
  IC50 ratio SiHa / SiHa/POR (fold lower IC50 in POR cell line): 6.75 ± 0.20
SiHa and SiHa/POR cells; listed as SN30000
  IC50 ratio SiHa / SiHa/POR (fold lower IC50 in POR cell line): 6.75
SiHa cells [4]; 0.2% O2
  PCR (IC50 for pHe 7.4/IC50 for pHe 6.5): 1.76 ± 0.43
SiHa cells [4]; 0.2% O2, both pHe values
  HCR: approximately 20
SiHa cells [4]; 20% O2
  PCR (IC50 for pHe 7.4/IC50 for pHe 6.5): 1.95 ± 0.66
SiHa cells [4]; <0.01% O2
  PCR (IC50 for pHe 7.4/IC50 for pHe 6.5): 0.84 ± 0.15
SiHa cells [4]; 0.2% O2 (24 h before and during 4 h exposure), pHe 6.5
  IC50: 9.88 ± 2.34 µM
SiHa cells [4]; 0.2% O2 (24 h before and during 4 h exposure), pHe 7.4
  IC50: 17.4 ± 1.02 µM
SiHa cells [4]; 4 h, 20% O2, pHe 6.5, 4 h
  IC50: 207 ± 69 µM
SiHa cells [4]; 4 h, 20% O2, pHe 7.4, 4 h
  IC50: 404 ± 21 µM
SiHa cells [4]; 4 h, <0.01% O2, pHe 6.5, 4 h
  IC50: 3.07 ± 0.38 µM
SiHa cells [4]; 4 h, <0.01% O2, pHe 7.4, 4 h
  IC50: 2.59 ± 0.35 µM
SiHa cells [4]; pHe 6.5
  ACR (IC50 for 20% O2/IC50 for <0.01% O2): 67 ± 24
  HCR (IC50 for 20% O2/IC50 for 0.2% O2): 20.1 ± 8.6
SiHa cells [4]; pHe 7.4
  ACR (IC50 for 20% O2/IC50 for <0.01% O2): 156 ± 23
  HCR (IC50 for 20% O2/IC50 for 0.2% O2): 23.2 ± 1.8
FaDu cells
  TMR (oxic IC50 pHe 7.4/anoxic IC50 pHe 6.5): 29.8 ± 5.7
FaDu cells; pHe 6.5, 4 h, anoxic, read-out: Anoxic IC50
  IC50: 8.63 ± 1.55 µM
FaDu cells; pHe 6.5, 4 h, oxic, read-out: Oxic IC50
  IC50: 277 ± 15 µM
FaDu cells; pHe 7.4, 4 h, anoxic, read-out: Anoxic IC50
  IC50: 4.16 ± 0.35 µM
FaDu cells; pHe 7.4, 4 h, oxic, read-out: Oxic IC50
  IC50: 258 ± 15 µM
FaDu cells; anoxic
  PCR Anoxic (IC50 at pHe 7.4/IC50 at pHe 6.5): 0.48 ± 0.10
FaDu cells; oxic
  PCR oxic (IC50 at pHe 7.4/IC50 at pHe 6.5): 0.93 ± 0.08
FaDu cells; pHe 6.5
  ACR (oxic IC50/anoxic IC50): 32.1 ± 6.04
FaDu cells; pHe 7.4
  ACR (oxic IC50/anoxic IC50): 62.0 ± 6.34
[5]
  E^0′ one-electron reduction potential: −401 ± 8 [MV^2+] ^g mV
[6]
  pKa of the radical anion: 5.48 ± 0.26

## O=C(O)CCc1nc2cc3c(cc2[n+]([O-])n1)CCC3 [Compound 15d, 3-(2-Carboxyethyl)-7,8-dihydro-6H-indeno[5,6-e][1,2,4]triazine 1-Oxide]
[7]
  Protein bound in mouse plasma: > 90%
